Data published in patent publication US20090042991A1, “Methods of increasing natural killer cell activity for therapy” (priority 2005, published 2009).
“And” between values parts separate entries of the source, which are not always exact repeats. Identical values can stand only once. “Also recorded” adds a separate entry of the source.

Legend:
Assay type in all cases: in vivo, human
[1] = tested on: advanced metastatic melanoma; assay: 2 stage Phase 2 study: tumor response with paclitaxel; conditions: for Best Response cycle 2 week 4: one value per subject
Experimental: The higher tolerated dose level was expanded to a total of 20 patients (Stage 1). The study will continue to Stage 2 if 7 or more patients have a response of stable disease or better, or at least 2 patients have a partial response or better. A safety assessment was performed with the first 6 patients enrolled as the weekly dose schedule had not previously been studied in humans. The primary endpoint is non-progression rate (NPR) at 3 months and response rate. Pharmacodynamic parameters include pre and post-dose NK cell activity in blood and when possible, tumor biopsies. […] Best Response indicates an evaluation of the patient's tumor: SD indicates less than 20% of an increase and less than 30% of a decrease in the sum of the longest diameters as compared to baseline; and PD=at least a 20% increase in the sum of the longest diameters as compared to baseline. NK Activity indicates the change in NK activity before and after dosing.

[2] = tested on: NK cell activity; assay: NK cell cytotoxic activity of patient PBMC (K562/eGFP flow cytometry), lung carcinoma study; conditions: for % tumor cell lysis post-dose / NK activity (change before and after dosing) / % tumor cell lysis pre-dose: Effector/Target 80:1; for % tumor cell lysis pre-dose: baseline before dosing
Excerpt: The following procedure can be employed to assay NK cell activity in a subject. The procedure is adapted from Kantakamalakul W, Jaroenpool J, Pattanapanyasat K. A novel enhanced green fluorescent protein (EGFP)-K562 flow cytometric method for measuring natural killer (NK) cell cytotoxic activity. J Immunol Methods. 2003 Jan. 15; 272:189-197, the entire teachings of which are incorporated herein by reference.
Materials and methods: Human erythroleukaemic cell line, K562, was obtained from American Type Culture Collection (CCL-243, American Type Culture Collection, Manassas, Va.), and cultured in RPMI-1640 medium (Cat#1875-093Gibco Invitrogen Corp, Carlsbad, Calif.) supplemented with 10% heat inactivated fetal calf serum (Gibco), 2 mM L-glutamin, 100 μg/ml streptomycin and 100 IU/ml penicillin at 37° C. with 5% CO2. K562 cells were transduced with retroviral vector which encode green fluorescent protein (eGFP). Stable cell line was selected with antibiotic, G418.
The subject's peripheral blood mononuclear cells (PBMCs) were prepared by clinical study sites and received in BD Vacutainer Cell Preparation Tube with sodium heparin (Product Number: 362753, Becton Dickinson, Franklin Lakes, N.J.).
Effector cells alone and target cells alone were used as controls. All tubes were incubated at 37° C. with 5% CO2 for about 3.5 hr. Ten microliters of propidium iodide (PI) at a concentration of 1 mg/mL was added t each tube including effector and target control tubes and then incubated at room temperature for 15 min.
Cytotoxic activity was analyzed with a FACSCalibur flow cytometer (Becton Dickinson). Linear amplification of the forward and side scatter (FSC/SSC) signals, as well as logarithmic amplification of eGFP and PI emission in green and red fluorescence were obtained. Ten thousand events per sample tube with no gating for acquisition were collected for analysis. Data analysis for two-parameter dot plots for eGFP versus PI was performed using CELLQuest (Becton Dickinson Biosciences) software to enumerate live and dead target cells. Debris and dead cells were excluded by setting a threshold of forward light scatter.
(§1) Dosing was IV q 3 weeks for up to 6 cycles in the absence of dose-limiting toxicity or progression. […] The phase 2 primary endpoint is time to progression, with secondary endpoints of response rate, survival, and quality of life. Study pharmacodynamic parameters include NK cell activity and Hsp70 level.
Best Response indicates an evaluation of the patient's tumor: PR=at least a 30% decrease in the sum of the longest diameters as compared to baseline, while SD indicates less than 20% of an increase and less than 30% of a decrease in the sum of the longest diameters as compared to baseline. […] NK Activity indicates the change in NK activity before and after dosing.

[3] = tested on: soft tissue sarcomas; assay: Phase 2 study: tumor response with paclitaxel
Excerpt: Major inclusion criteria are refractory or recurrent soft tissue sarcomas other than gastrointestinal stromal tumor (GIST), with evidence of recent progression. […] Best Response indicates an evaluation of the patient's tumor: PR=at least a 30% decrease in the sum of the longest diameters as compared to baseline; SD indicates less than 20% of an increase and less than 30% of a decrease in the sum of the longest diameters as compared to baseline; and PD=at least a 20% increase in the sum of the longest diameters as compared to baseline. NK Activity indicates the change in NK activity before and after dosing.

[4] = Phase 1/2 lung carcinoma study: safety
Experimental: Phase 1 (safety/PK/MTD (maximum tolerated dose) was followed by a Phase 2 randomized two arm portion. Two dose levels were evaluated in Phase 1.
as §1

[5] = Paclitaxel 175 + Cmpnd (1) 233 mg/M^2 (carboplatin AUC 6), one value per subject
[6] = Paclitaxel 200 + Cmpnd (1) 266 mg/M^2 (carboplatin AUC 6), one value per subject

CN(NC(=O)CC(=O)NN(C)C(=S)c1ccccc1)C(=S)c1ccccc1 [Compound (1)]
non-progression rate (NPR) at 3 months ([1]; 20 evaluable patients, Stage 1): 55% | Best Response cycle 2 week 4 ([1]; Paclitaxel 80 + Cmpnd (1) 106 mg/M^2 weekly): SD (less than 20% of an increase and less than 30% of a decrease in the sum of the longest diameters as compared to baseline); also recorded: PD (at least a 20% increase in the sum of the longest diameters as compared to baseline) | Best Response cycle 2 week 4 ([1]; Paclitaxel 80 + Cmpnd (1) 213 mg/M^2 weekly): SD (less than 20% of an increase and less than 30% of a decrease in the sum of the longest diameters as compared to baseline); also recorded: PD (at least a 20% increase in the sum of the longest diameters as compared to baseline) | patients stable at 3 months ([1]; of 20 evaluable patients, Stage 1): 11 patients | patients with at least a 20% increase in sum of longest diameters (PD) ([1]; patients completing the study (#12-#20, #22)): seven patients | % tumor cell lysis post-dose [2, 5]: 30.8% and 7.75% and 14.61% and 16.14% and 8.76% and 10.05% | NK activity (change before and after dosing) [2, 5]: increase; also recorded: no change | % tumor cell lysis post-dose [2, 6]: 5.5% and 7.81% | NK activity (change before and after dosing) [2, 6]: decrease; also recorded: increase | % tumor cell lysis pre-dose [2, 5]: 7.79% and 0.92% and 10.7% and 9.55% and 3.12% and 7.84% | % tumor cell lysis pre-dose [2, 6]: 8.4% and 3.59% | NK activity (change before and after dosing) ([2]; dose not printed (subjects 9-11), listed as Cmpnd (1)): increase; also recorded: decrease | patients with increased NK cell activity ([2]; evaluable samples, assayed 7 days after the second dose): Seven of the 8 | patients with increase in NK cell activity between pre- and post-dose ([2]; of the 11 original patients, paired t-test p=0.06, not significant): 8 patients | Best Response cycle 2 ([3]; Paclitaxel 80 + Cmpnd (1) 213 mg/M^2 weekly, one value per subject): SD (less than 20% of an increase and less than 30% of a decrease in the sum of the longest diameters as compared to baseline); also recorded: PD (at least a 20% increase in the sum of the longest diameters as compared to baseline) | patients with at least a 20% increase in sum of longest diameters (PD) ([3]; patients completing the study (#23-#29, #31-33)): five patients | first cycle dose-limiting toxicities ([4]; Phase 1, Cohorts 1 and 2, 16 patients, with carboplatin AUC 6 and paclitaxel): No first cycle dose-limiting toxicities | adverse effects (AEs) ([4]; Phase 1, usually Grade 1-2, with carboplatin and paclitaxel): arthralgia and myalgia, peripheral neuropathy, rash, nausea, and vomiting, fatigue, alopecia, edema, dehydration, constipation, and decreased blood counts | tolerability of carboplatin:paclitaxel:Compound (1) combination ([4]; at the dose levels studied, safety profile similar to carboplatin:paclitaxel alone): well tolerated
